The test system of one series is HEK293. Description: Cytotoxicity assay (CellTiter-Glo), HEK293. Type of series: cell-based, human. To be noted: 48 hours incubation. The procedure: (§1) Human liver hepatocellular carcinoma (HEPG2) and human embryonic kidney 293 (HEK293) cell lines were purchased (ATCC) and cultured in 75 cm2 flasks (CellStar). Cells were grown in DMEM/High Glucose (Hyclone, #SH3024301) media to which non-essential amino acids (Hyclone, #SH30238.01), 10 mM HEPES (Hyclone, #SH302237.01), 5×106 units of penicillin and streptomycin (Hyclone, #SV30010), and 10% of heat inactivated fetal bovine serum (Gibco, #10082147) were added. Cells were harvested using 0.05% Trypsin (Hyclone, #SH3023601), washed with PBS, and dispensed into sterile white, optical bottom 384-well plates (NUNC, #142762). After three hours, small molecule solutions were transferred with a Tecan Freedom EVO liquid handling system equipped with a 100 nL pin tool (V&P Scientific). The controls (E)-10-(bromotriphenylphosphoranyl)decyl 4-(4-(tert-butyl)phenyl)-4-oxobut-2-enoate (400 μM in DMSO, positive control) and DMSO (negative control). The cells were incubated for 48 hours followed by the addition of CellTiter-Glo™, a luminescence-based cell viability assay (Promega, Madison, Wis.). All luminescence readings were performed on a Tecan Infinite M1000 plate reader. The assay was carried out in quadruplet with three independent runs. The data was normalized to the controls and analyzed by nonlinear regression (GraphPad Prism).
Background: Cellular ATP, detected with luciferase, serves as a proxy for viable cell number.

The nature of series [1]: Human liver microsome stability assay. Type of series: in vitro ADME. To be noted: 10 μM compound; for half-life at 10 μM: human, liver microsomes, read-out: Half-life (min) (HumanLM). The protocol:
(§2) Human and mouse liver microsomes were obtained fom BD Gentest.
(§3) Each evaluation included six independent assays carried out three at a time, on two different days
(§4) 2. For a total volume of Microsomal Assay Mixture (MAM) 390 μL, sufficient for seven time points, combine the following
(§5) 3. Sonicate MAM for 5 min and meanwhile thaw microsomes (20 mg/mL) (BD Gentest, Cat #452156) on ice.
(§6) 4. Aliquot 100 μL of ice cold ISTD into 7 separate 1.5 mL conical vials and label them the time points for 0, 10, 20, 40, 60, 90, and 120 min.
(§7) 5. Arrange the timer. Microsomes (Final concentration of 0.5 mg/mL) should be added to all time points except the zero time point.
(§8) 6. Add 50 μL of the MAM solution to the conical vial labelled as zero time point. Place the remaining MAM solution in the incubator (37° C.) for 5 min and initiate the reaction with addition of microsomes (8.8 μL) and record the time.
(§9) 7. At the end of each time interval remove 50 μL and add 100 μL to ISTD in conical vial, sonicate for 10 sec and spin down at 10,000 rpm for 5 minutes.
(§10) 8. Take 100 μL of supernatant and transfer to Spin-X HPLC filter tubes (Corning Incorporated, Cat #8169) and centrifuge at 13,000 rpm for 5 minutes and take 5 μL from this solution and dilute in 495 μL of LCMS grade methanol (Fischer scientific, CAS #67-56-1) in an 2 mL glass auto sampler vial (Microsolv, Cat #95025-WCV) 9. The samples are analyzed by LCMS-8040. (Shimadzu)
(§11) Calculation: From the peak area, calculate the following
(§12) The compounds are tested for the metabolic stability in the Human and Mouse Liver microsomes at 10 μM concentration.
A general note: Microsomes from liver hold many membrane-bound enzymes, among them those of drug oxidation.

The subject of series [2] is mice subjected to chronic restraint stress (CRS). Description: Y-maze alternation task, chronic restraint stress (CRS) mice. The series is classed as in vivo, mouse. The procedure: C57/B16 mice, males and females were ordered from Jackson Laboratories at 8 weeks old and were kept in normal housing conditions (12 h light ON cycle starting at 7 am/water and food ad libitum) for one week. During this week, animals were single housed and handled to reduce the anxiety-like response toward the experimenter. To induce a working memory deficit, mice were subjected to a chronic restraint stress protocol (CRS). They were placed in a 50 ml Falcon® tube, twice a day, for 1 hour during their diurnal cycle. The time of occurrence of the stress was randomized every day to avoid predictability. CRS was not applied on testing days. Y-maze test occurred 15 hours minimum after the last stressor.
Mice were first habituated to the Y-maze apparatus and distal cues during 2 consecutive days over a 10 min free exploration session (one session per day). The next day, animals performed a training session consisting in seven successive trials separated by a 30 s inter-trial interval (ITI); during this training session, mice were familiarized with the experimental procedure (opening and closing of the doors and confinement into the goal arms). For each trial, mice remained in the start-box for a 30 s ITI. Then, the door was opened and the mouse was allowed to enter freely one of the two goal arms; the chosen arm was closed and the choice was recorded. After a 30 s confinement period into the chosen arm, the mouse was removed and brought back to the start-box for a second trial identical to the first one and this procedure was repeated over the series of trials.
The same general procedure used in the training session was implemented 24 h later, except that the ITI was lengthened to 90 s. For this experiment, animals were acutely injected i.p. with vehicle or αPAM, 30 minutes before the beginning of the test. To dissociate memory deficits from an eventual progressive loss of motivation to alternate over the series, an 8th trial was added to the series which was separated from the 7th trial by a shorter ITI (5 s). All animals failing to alternate at the 8th trial were excluded. The mean alternation rate was calculated and was expressed in percentage (number of alternation done by the animal/total number of alternation possible×100)±SEM. The percentage of alternation during the entire task is considered as an index of working memory performance (50% of being a random alternation rate). Factorial ANOVA was applied to the data to reveal differences between groups. If the ANOVA was significant for group effect (p<0.05), Scheffe post-hoc analysis were conducted to identify which groups are different from each other.
All drugs were diluted in a vehicle solution containing 85% H2O, 14% propylene glycol (Sigma Aldrich) and 1% Tween 80 (Sigma Aldrich). Working solutions were prepared at a concentration of 10 mg/mL and administered i.p. adjusted to the body weight of each animal. Doses used were either 1, 5, 10 or 20 mg/kg. For all Y maze experiments, animals were acutely injected i.p. with vehicle or αPAM, 30 minutes before the beginning of the test.

Another series concerns adult male Wistar rats. Description: Spontaneous locomotor activity in rats. The series is classed as in vivo, rat. To be noted: 10 mg/kg i.p.; for distances traveled in 5-min intervals: 60 min recording; for overall distance traveled during 60 min (spontaneous locomotor activity): vs SOL. The protocol:
(FIG. 23). […] Procedure for the assessment of locomotor activity changes induced by additional ligands in rats. […] The test was performed in the apparatus consisting of four white and opaque Plexiglas chambers (40×25×35 cm) under dim red light (20 lux). Digital camera mounted above the apparatus recorded the animal activity, which was tracked and analyzed using ANY-maze Video Tracking System software (Stoelting Co, Wood Dale, Ill., USA). […] The 10 mg/kg dose of each of ligands or SOL were applied i.p. in the 10 ml/kg volume and a single rat was immediately placed in the center of the chamber. The activity was tracked for a total of 60 min. Chambers were cleaned with diluted ethanol after every trial. Statistical analysis (one-way ANOVA and post hoc SNK tests where applicable) was performed in SigmaPlot 11 software (Systat, USA).

A short description of series [3]: Pharmacokinetics in mice (plasma, liver, brain). To be noted: i.p. dosing at 3 mg/kg.
Series [4] concerns Female Swiss Webster mice. Description: Rotarod sensorimotor / locomotor coordination. Type of series: in vivo, mouse. To be noted: 40 mg/kg oral gavage; 15 rpm, 3 min; 10, 30, 60 min after dosing. The procedure: Female Swiss Webster mice (10 weeks of age) from Charles River Laboratory, WIL, MA were used for the experiments. The animals were housed under specific pathogen-free conditions, under standard conditions of humidity, temperature and a controlled 12 h light and dark cycle and had free access to food and water. The sensorimotor rotarod test was carried out 10, 30 and 60 minutes after the injection. Mice were tested on a rotarod at 15 rpm for maximum 3 min and the time of fall was recorded. Falling before the 3 minutes period of testing assesses of locomotor coordination impairment induced by the compound.
Mice (N=10/group) received a single administration via oral gavage of test compound (40 mg/kg), diazepam (5 mg/kg), or vehicle (2% polyethylene glycol, 2.5% hydroxypropylmethyl cellulose solution).
Background: In the rotarod test animals must keep their balance on a rotating rod.

A short description of series [5]: Mouse liver microsome stability assay. To be noted: 10 μM compound; for half-life at 10 μM: mouse, liver microsomes, read-out: Half-life (min) (MouseLM). The series is classed as in vitro ADME. The procedure:
as §2, §3, §4, §5, §6, §7, §8, §9, §10, §11, §12

A further series deals with HEPG2. Description: Cytotoxicity assay (CellTiter-Glo), HEPG2. The series is classed as cell-based, human. To be noted: 48 hours incubation. The procedure: as §1
The subject of a further series is C57B1/6 male mice. Description: Forced swim test (FST). To be noted: 10 mg/kg i.p. 24, 20, 1 hour before testing; vs vehicle. Type of series: in vivo, mouse. The procedure: C57B1/6 male mice were ordered from Jackson Laboratories at 8 weeks-old and were group housed (4-5 mice/cage) under normal housing conditions (12 h light ON cycle starting at 7 am/water and food ad libitum) for one week. During this week, animals were handled in order to habituate them to the experimenter and to reduce their anxiety-like response during behavioral testing.
All drugs were diluted in a vehicle solution containing 85% H2O, 14% propylene glycol (Sigma Aldrich) and 1% Tween 80 (Sigma Aldrich). Working solutions were prepared at a concentration of 20 mg/mL and administered i.p. adjusted to the body weight of each animal. Doses used were either 1, 5 or 10 mg/kg. For all FST experiments, animals were injected i.p. with vehicle or αPAM.
Mice were tested in the forced swim test (FST) (measure of despair-like behavior used for the assessment of antidepressant efficacy). Animals were sub-chronically injected three times (24, 20 and 1 hour before testing) as per standard methods in the field for testing potential antidepressant compounds.
One hour after the last injection, mice were placed in an inescapable transparent tank filled with water (25 cm, 25-26° C.), where they are unable to touch the bottom and unable to jump out of the tank. Animal were recorded for a period of 6 minutes and a manual count of the immobile time in the tank was measured for the 2-6 minutes period by an experimenter blinded to the mouse treatment history. Immobility is defined as the minimum amount of movement to stay afloat. Compounds that reduced immobility in the FST are considered to have potential antidepressant actions.

“And” between values parts separate entries of the source, which are not always exact repeats. Identical values can stand only once. “Also recorded” adds a separate entry of the source.

On to `CNC(=O)c1ncn2c1CN=C(c1ccccc1F)c1cc(Br)ccc1-2` [RV-II-04], for which, in the series with HEK293, the “HEK293 LD50” value is above 200 µM. In addition, in series [1], the “% left after 2 hr. (Human LM)” value is on record as 80.2 ± 0.4% and the half-life at 10 μM was 595 ± 157 min. The “Alternation rate (%)” value in series [2] (Dose 5 mg/kg) was 54.1%. Moreover, in the series with adult male Wistar rats, the “distances traveled in 5-min intervals” value is on record as “induced sedation during nearly the whole period of recording” and the “overall distance traveled during 60 min (spontaneous locomotor activity)” value was “profound sedation; also recorded: sedated when compared to all other groups”. Also, in [3], the “molar concentration range reached in mouse brain tissue” value (from here on “molar concentration range reached”) is “micromolar concentrations”. Moreover, the “sensorimotor impairment on rotarod (time of fall)” value (from here on “sensorimotor impairment on rotarod”) in series [4] is on record as “most severe motor impairment”. In series [5], the “% left after 2 hr. (MouseLM)” value is 73.7 ± 0.3% and the half-life at 10 μM was 302 ± 33 min. Further, the “HEPG2 LD50” value in the series on HEPG2 is above 200 µM.

As for `Cc1noc(-c2ncn3c2[C@@H](C)N=C(c2ccccn2)c2cc(Br)ccc2-3)n1` [GL-II-54, (R)-5-(8-bromo-4-methyl-6-(pyridin-2-yl)-4H-benzo[f]imidazo[1,5-a][1,4]diazepin-3-yl)-3-methyl-1,2,4-oxadiazole], in the series on HEK293, the “HEK293 LD50” value was above 400 µM. The “% left after 2 hr. (Human LM)” value in series [1] is on record as 76.0 ± 0.2%. For the same molecule, the half-life at 10 μM in [1] came out at 404 ± 61 min; in series [5] it was 2330 ± 1110 min. In addition, in series [2] (Dose 10 mg/kg), the “Alternation rate (%)” value was determined as 66.66%. Moreover, the “time spent immobile in the FST” value in the series on C57B1/6 male mice is recorded as “significant decrease in immobility time; also recorded: significant antidepressant-like action”. Besides, the “molar concentration range reached” value in [3] is reported as “high submicromolar to low micromolar values”. The “sensorimotor impairment on rotarod” value in [4] is on record as “no sensorimotor impairment”. In addition, the “HEPG2 LD50” value in the series with HEPG2 is above 400 µM.

On to `C#Cc1ccc2c(c1)C(c1ccccc1F)=N[C@@H](C)c1c(C(=O)NC)ncn1-2` [MP-III-023, (S)-8-ethynyl-6-(2-fluorophenyl)-N,4-dimethyl-4H-benzo[f]imidazo[1,5-a][1,4]diazepine-3-carboxamide], for which, in the series with HEK293, the “HEK293 LD50” value is above 200 µM. For the same molecule, the “Half-life (min) (HumanLM)” value in [1] is 1790 ± 40 min. Moreover, the “Alternation rate (%)” value in [2] (Dose 5 mg/kg) was 62.5%. Also, in the series on adult male Wistar rats, the “distances traveled in 5-min intervals” value was “induced sedation during nearly the whole period of recording” and the “overall distance traveled during 60 min (spontaneous locomotor activity)” value is recorded as “profound sedation”. Further, the “molar concentration range reached” value in series [3] was “micromolar concentrations”. In addition, the “sensorimotor impairment on rotarod” value in series [4] is given as “most severe motor impairment”. Moreover, in series [5], the “Half-life (min) (MouseLM)” value was 846 ± 5 min; the “% left after 2 hr. (MouseLM)” value was 84.6% and 84.6 ± 0.2%. Also, the “HEPG2 LD50” value in the series with HEPG2 is above 200 µM.

As usually defined, the half-life is the time in which the quantity being followed falls by half.
